# Experimental data: patent US20170172994A1, “COMPOSITIONS AND METHODS FOR TREATING BACTERIAL INFECTIONS” (WOCKHARDT LIMITED, priority 2013, published 2017)
# Like-named read-outs stand apart in the source and are kept apart here.
# Tests used:
# E. coli ATCC 25922 [1] = test: Microbiological drug diffusion assay, standalone compounds in absence of beta-lactamase enzymes; assay type: cell-based; conditions: Escherichia coli, ATCC25922, 40 μg/ml, no beta-lactamase, read-out: Inhibition zone diameter
# Method: (§1) Next, the beta-lactamase stability of some of these compounds was evaluated. In a typical stability study, ESBL enzymes from K. pneumoniae S48 producing Metalo betalactamase (NDM4) and Class A (CTX-M, SHV, TEM) beta-lactamase were isolated from freshly grown culture by 5 repetitive cycles of freeze and thaw in liquid nitrogen. […] After the stipulated incubation duration, the test compounds were extracted from the reaction mixture by the addition of 0.5 ml of Acetonitrile in 1:1 ratio (final concentration of test compound—40 μg/ml) and centrifuged at 12000 rpm for 2 min to separate precipitated protein. The activity of test compounds was measured from the supernatant by performing microbiological drug diffusion assay. For drug diffusion assay, Muller-Hinton Agar (MHA) seeded with E. coli ATCC 25922 was poured on to a bioassay plate placed on a flat surface and allowed to solidify. Appropriate concentration of the standalone and enzyme treated test compound dilutions were added to 6 mm wells cut with the help of a borer. The antibacterial activity of the test compounds was measured in terms of zones of inhibition appearing after 18-24 hours of incubation at 37° C. Measurement of diameter of zone of inhibition was undertaken to the nearest whole value with the help of ruler.
# [2] = tested on: ESBL enzymes from K. pneumoniae S48 producing Metalo betalactamase (NDM4) and Class A (CTX-M, SHV, TEM) beta-lactamase; test: Beta-lactamase stability study (crude enzyme extract, then drug diffusion assay on E. coli ATCC 25922); assay type: biochemical; conditions: for Inhibition zone diameter after treatment with beta-lactamase enzyme: 40 μg/ml, zone on E. coli ATCC 25922
# Method: as §1
# [3] = tested on: Acinetobacter baumannii NCTC 13304 producing carbapenem hydrolyzing Class D OXA enzyme (OXA 27); test: Time kill study (viability count); assay type: cell-based; conditions: Cefepime 8 μg/ml, Compound of Formula (III) 8 μg/ml, Imipenem 16 μg/ml
# Method: (§2) The antibacterial effectiveness of various antibacterial agents in presence of a compound of Formula (III) was investigated and the results are detailed below. In a typical study, overnight cultures in Trypticase soya broth (TSB) were brought to log phase by 1 in 10 dilution in fresh cation adjusted Mueller Hinton Broth (MHB) and incubation for 2.5 hours at 35° C. in orbital shaker. Log phase cultures were diluted to desired inoculums in flasks with MHB, containing various drug concentrations. Flasks were incubated at 35° C. in orbital shaker with rotational speed of 125 rpm. Viability count was determined by 1 in 10 serial dilutions of samples in normal saline and surface spreading of 10 μl of dilutions in duplicate on Trypticase soya agar plates. Plates were incubated for 24 hours at 35° C. and colonies were enumerated to determine the colony forming units (CFU) per ml volume.
# E. coli ATCC 25922 [4] = test: Time kill study (viability count); assay type: cell-based; conditions: for Bacterial count: Compound of Formula (III) 2 μg/ml, alone or combined
# Method: as §2
# P. aeruginosa PAO1 = test: Time kill study (viability count); assay type: cell-based; conditions: for Bacterial count: Compound of Formula (III) 4 μg/ml, alone or combined
# Method: as §2
# [5] = tested on: Pseudomonas aeruginosa NCTC 13437 producing carbapenem hydrolyzing MBL (VIM 10) & Class A (VEB1); test: Time kill study (viability count); assay type: cell-based; conditions: Cefepime 8 μg/ml, Compound of Formula (III) 8 μg/ml, Imipenem 16 μg/ml
# Method: as §2
# K pneumoniae J 101 = test: MIC determination (agar dilution, CLSI); assay type: cell-based; conditions: K pneumoniae J 101 (TEM1, SHV12, OMP); standalone
# Method: (§3) In a typical procedure for determining MIC values, overnight grown bacterial cultures were diluted appropriately and inoculated on the agar media containing doubling concentrations of the test compounds. Observation for growth or no growth was performed after 16-20 hours of incubation at 35±2° C. in ambient air. The overall procedure was performed as per Clinical and Laboratory Standards Institute (CLSI) recommendations (Clinical and Laboratory Standards Institute (CLSI), Performance Standards for Antimicrobial Susceptibility Testing, 20th Informational Supplement, M 100-S20, Volume 30, No. 1, 2010).
# K pneumoniae J 102 = test: MIC determination (agar dilution, CLSI); assay type: cell-based; conditions: K pneumoniae J 102 (TEM1, SHV5, OMP); standalone
# Method: as §3
# K pneumoniae J 104 = test: MIC determination (agar dilution, CLSI); assay type: cell-based; conditions: K pneumoniae J 104 (TEM1, SHV11, CTX-M, OMP); standalone
# Method: as §3
# K pneumoniae J 105 = test: MIC determination (agar dilution, CLSI); assay type: cell-based; conditions: K pneumoniae J 105 (TEM1, SHV2, CTX-M, OMP); standalone
# Method: as §3
# K. pneumoniae B88 [6] = test: MIC determination; assay type: cell-based; conditions: Klebsiella pneumoniae; K. pneumoniae B88 (NDM, SHV, TEM)
# Method: as §3
# P. mirabilis G 186 = test: MIC determination; assay type: cell-based; conditions: Proteus mirabilis, G186; P. mirabilis G 186 (NDM, TEM)
# Method: as §3
# K. pneumoniae B88 [7] = test: Minimum filamentation / spheroplasting concentration; conditions: K. pneumoniae B88 (NDM, SHV, TEM); minimum spheroplasting concentration
# Text: The term “MSC” as used herein refers to minimum spheroplasting concentration, which is the minimum concentration of an antibacterial agent at which about 80% of bacterial cells covert into spheroplasts.
# The term “MFC” as used herein refers to minimum filamentation concentration, which is the minimum concentration of an antibacterial agent at which about 80% of bacterial cells get elongated to form filament like structures.
smiles,measurement,setting,value
"O=C(NNC(=O)[C@@H]1CC[C@@H]2CN1C(=O)N2OS(=O)(=O)O)[C@@H]1CCCNC1 [Compound of Formula (III), trans-(2S,5R)-sulfuric acid mono-[2-(N′—[(R)-piperidin-3-carbonyl]-hydrazino Carbonyl)-7-oxo-1,6-diaza-bicyclo[3.2.1]oct-6-yl] Ester]",zone of inhibition at 40 µg/mL,E. coli ATCC 25922 [1]; 0 hour,16 mm
same,zone of inhibition at 40 µg/mL,E. coli ATCC 25922 [1]; 1 hour,16 mm
same,zone of inhibition at 40 µg/mL,E. coli ATCC 25922 [1]; 2 hours,16 mm
same,zone of inhibition at 40 µg/mL,E. coli ATCC 25922 [1]; 24 hours,16 mm
same,Inhibition zone diameter after treatment with beta-lactamase enzyme,[2]; 0 hour incubation at 37° C.,16 mm
same,Inhibition zone diameter after treatment with beta-lactamase enzyme,[2]; 1 hour incubation at 37° C.,16 mm
same,Inhibition zone diameter after treatment with beta-lactamase enzyme,[2]; 2 hours incubation at 37° C.,16 mm
same,Inhibition zone diameter after treatment with beta-lactamase enzyme,[2]; 24 hours incubation at 37° C.,16 mm
same,Stability to beta-lactamase (in words),"[2]; carbapenem hydrolyzing metallo beta-lactamase, up to 24 hours",stable and not inactivated by the beta-lactamase
same,Bacterial count,[3]; 0 hour,6.3 log (CFU/ml)
same,Bacterial count,[3]; 2 hours,7.5 log (CFU/ml)
same,Bacterial count,[3]; 4 hours,7.9 log (CFU/ml)
same,Bacterial count,[3]; 6 hours,8.1 log (CFU/ml)
same,Bacterial count,[3]; 8 hours,8.1 log (CFU/ml)
same,Bacterial count,"E. coli ATCC 25922 [4]; 0 hour, Aztreonam 1 μg/ml",7.47 log (CFU/ml)
same,Bacterial count,"E. coli ATCC 25922 [4]; 0 hour, Cefoxitin 1 μg/ml",7.47 log (CFU/ml)
same,Bacterial count,"E. coli ATCC 25922 [4]; 0 hour, Cefsulodin 16 μg/ml",7.47 log (CFU/ml)
same,Bacterial count,"E. coli ATCC 25922 [4]; 2 hours, Aztreonam 1 μg/ml",7.85 log (CFU/ml)
same,Bacterial count,"E. coli ATCC 25922 [4]; 2 hours, Cefoxitin 1 μg/ml",7.85 log (CFU/ml)
same,Bacterial count,"E. coli ATCC 25922 [4]; 2 hours, Cefsulodin 16 μg/ml",7.85 log (CFU/ml)
same,Bacterial count,"E. coli ATCC 25922 [4]; 4 hours, Aztreonam 1 μg/ml",7.88 log (CFU/ml)
same,Bacterial count,"E. coli ATCC 25922 [4]; 4 hours, Cefoxitin 1 μg/ml",7.88 log (CFU/ml)
same,Bacterial count,"E. coli ATCC 25922 [4]; 4 hours, Cefsulodin 16 μg/ml",7.88 log (CFU/ml)
same,Bacterial count,"E. coli ATCC 25922 [4]; 6 hours, Aztreonam 1 μg/ml",8.26 log (CFU/ml)
same,Bacterial count,"E. coli ATCC 25922 [4]; 6 hours, Cefoxitin 1 μg/ml",8.26 log (CFU/ml)
same,Bacterial count,"E. coli ATCC 25922 [4]; 6 hours, Cefsulodin 16 μg/ml",8.26 log (CFU/ml)
same,Bacterial count,"E. coli ATCC 25922 [4]; 24 hours, Aztreonam 1 μg/ml",8.34 log (CFU/ml)
same,Bacterial count,"E. coli ATCC 25922 [4]; 24 hours, Cefoxitin 1 μg/ml",8.34 log (CFU/ml)
same,Bacterial count,"E. coli ATCC 25922 [4]; 24 hours, Cefsulodin 16 μg/ml",8.34 log (CFU/ml)
same,Bactericidal action (in words),"E. coli ATCC 25922 [4]; E. coli ATCC 25922, standalone or combination, Tables 3 to 5",did not exhibit any significant bactericidal action
same,Bacterial count,"P. aeruginosa PAO1; 0 hour, Aztreonam 2 μg/ml",5.74 log (CFU/ml)
same,Bacterial count,"P. aeruginosa PAO1; 0 hour, Cefsulodin 2 μg/ml",6.81 log (CFU/ml)
same,Bacterial count,"P. aeruginosa PAO1; 2 hours, Aztreonam 2 μg/ml",6.5 log (CFU/ml)
same,Bacterial count,"P. aeruginosa PAO1; 2 hours, Cefsulodin 2 μg/ml",7.23 log (CFU/ml)
same,Bacterial count,"P. aeruginosa PAO1; 4 hours, Aztreonam 2 μg/ml",7.6 log (CFU/ml)
same,Bacterial count,"P. aeruginosa PAO1; 4 hours, Cefsulodin 2 μg/ml",7.18 log (CFU/ml)
same,Bacterial count,"P. aeruginosa PAO1; 6 hours, Aztreonam 2 μg/ml",7.9 log (CFU/ml)
same,Bacterial count,"P. aeruginosa PAO1; 6 hours, Cefsulodin 2 μg/ml",7.5 log (CFU/ml)
same,Bacterial count,"P. aeruginosa PAO1; 24 hours, Aztreonam 2 μg/ml",8.8 log (CFU/ml)
same,Bacterial count,"P. aeruginosa PAO1; 24 hours, Cefsulodin 2 μg/ml",8.2 log (CFU/ml)
same,Bactericidal action (in words),"P. aeruginosa PAO1; P. aeruginosa PAO1, standalone or combination, Tables 6 and 7",did not exhibit any bactericidal action
same,Bacterial count,[5]; 0 hour,6.0 log (CFU/ml)
same,Bacterial count,[5]; 2 hours,6.55 log (CFU/ml)
same,Bacterial count,[5]; 4 hours,5.9 log (CFU/ml)
same,Bacterial count,[5]; 6 hours,5.81 log (CFU/ml)
same,Bacterial count,[5]; 12 hours,6.2 log (CFU/ml)
same,MIC,K pneumoniae J 101,> 32 µg/mL
same,MIC,K pneumoniae J 102,> 32 µg/mL
same,MIC,K pneumoniae J 104,> 32 µg/mL
same,MIC,K pneumoniae J 105,> 32 µg/mL
same,MIC,K. pneumoniae B88 [6],8 µg/mL
same,MIC,P. mirabilis G 186,> 64 µg/mL
same,MSC,K. pneumoniae B88 [7],0.12 µg/mL
